Assay results reported in PubChem BioAssay AID2005 (Sanford-Burnham Center for Chemical Genomics, 2009).
Calls of active or inactive are those of the source.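 How the source made its calls: active means plate Z score at or below -3, or inhibition of at least 30% at 20 µM; inactive means the rest.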

Assay: EGFP reporter destabilization counter-screen – F442A EGFP cells, fluorescence, counter-screen for p/CIP destabilizer project, dose response (AID 2005);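 further: cells express EGFP alone from a CMV promoter as a counter screen for p/CIP-EGFP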
Details: F442A EGFP cells, EGFP fluorescence, 16 h, stronger effect = higher value

Structure (SMILES) | inhibition (EGFP decrease, at 10 µM) [%] | inhibition (at 20 µM)
Cc1nn(CC(=O)NCCN2CCCCC2C)c(=O)c2cc(-c3ccccc3)nn12 (centres undefined) | 17.6 | 1.6% (inactive)
COC(=O)c1sc(NC(=O)CSc2nnnn2-c2cccc(OC)c2)nc1C | 34.2 | 13.2% (inactive)
CC(C)OP(=O)(O)NC(=O)c1ccccc1 | 3.6 | 18.5% (inactive)
O=C(CN1C(=O)c2ccccc2C1=O)N(CCO)Cc1ccccc1 | -7.7 | 16% (inactive)
C/C(=C/C=C/[C@@H](C)C(=O)O)[C@H]1CN[C@H](C(=O)O)[C@H]1CC(=O)O | -8.3 | 10.3% (inactive)
Cc1cc2nnc(SCC(=O)N3CCOCC3)n2c2ccccc12 | 26.4 | 17.9% (inactive)
Cc1ccc(NC2CCCN(C(=O)c3ccccc3-c3ncc[nH]3)C2)cc1C (centres undefined) | -12.3 | 21.4% (inactive)
O=C(NCc1ccc(Cl)cc1)c1ccc(-c2ccccc2C(F)(F)F)o1 | 16.5 | -4.8% (inactive)
COc1ccccc1NC(=O)CSc1nncn1-c1cccnc1 | 4.7 | 8% (inactive)
Cc1ccc(CNC(=O)C2CCCCN2S(=O)(=O)c2ccccc2)cc1 (centres undefined) | -17.4 | 4.6% (inactive)
C(=N\NC1=Nc2cccc3cccc1c23)/c1ccccn1 | 10.2 | 12% (inactive)
O=c1cc(O)c2c(=O)n(C3CCCCC3)c3ccccc3c2o1 | 2.1 | 4.6% (inactive)
O=C(Nc1ccnn1C1CCN(Cc2ccccc2OC(F)F)CC1)c1cccc(F)c1 | 26.5 | 37.8%
COc1cccc(-c2nc(CS(=O)CC(=O)NCc3ccccc3)c(C)o2)c1 (centres undefined) | 19.6 | -13.3% (inactive)
O=C(COC(=O)COc1ccccc1)NCc1ccccc1 | 16.3 | 11.3% (inactive)
CCOCCCNC(=O)c1cc2c(=O)n3cccc(C)c3nc2s1 | -2.1 | 12.9% (inactive)
C=CCN(c1ccccc1)S(=O)(=O)c1ccc(Cl)c(C(=O)OCC(=O)NCCCN2CCCC2=O)c1 | 16.8 | 14.2% (inactive)
O=C(Nc1cccc(-c2csc(Nc3ccc(Cl)cc3)n2)c1)c1cc([N+](=O)[O-])cc(C(F)(F)F)c1 | 32.2 | 21.2% (inactive)
CC(C)(C)NC(=O)c1ccc2c(c1)N(CC(=O)N1CCN(c3ccc(F)cc3)CC1)C(=O)C(C)(C)O2 | 8.7 | 12.7% (inactive)
CC1=C(C(=O)OCc2ccccc2)C(c2ccc(C(F)(F)F)cc2)NC(=O)N1CCCCCC(=O)O (centres undefined) | -4.3 | -6% (inactive)
O=c1c2ccccc2nc(-c2ccccc2)n1-c1ccncc1 | -29.4 | 24.7% (inactive)
Cc1ccc(-c2nc(CS(=O)CC(=O)NC3CCC(C)CC3)c(C)o2)cc1 (centres undefined) | 27.4 | -4.5% (inactive)
Cc1ccc(S(=O)(=O)N/N=C(\c2ccccc2)c2cccnc2)cc1 | 5.5 | 21.7% (inactive)
O=C(Nc1cccnc1)c1ccc(Cl)c(S(=O)(=O)N2CCCCCC2)c1 | 28.5 | -6.9% (inactive)
Cc1ccc(SCC(=O)N(C)C2CCS(=O)(=O)C2)cc1 (centres undefined) | 17.7 | 28.3% (inactive)
Cc1ccc(NC(=O)C(NS(=O)(=O)c2cccc3nsnc23)C(C)C)nc1 (centres undefined) | 34.6 | 21.7% (inactive)

Structure (SMILES) | inhibition (EGFP decrease, at 10 µM) [%] | inhibition (at 20 µM)
O=C(c1ccccc1)N1CCN(C(=O)c2cc3ccccc3o2)CC1 | 8.7 | 17.1% (inactive)
NC(=O)C1CCCCc2c1[nH]c1ccc(Cl)cc21 (centres undefined) | 16.2 | 7.6% (inactive)
Cc1ccc(CN(Cc2ccccc2)C(=S)NCC(=O)NCc2cccnc2)o1 | 5.8 | 6.9% (inactive)
CCOC(=O)C1=C(N)Oc2cc(C)oc(=O)c2C12C(=O)N1c3c(cc(OC)cc32)C(C)=CC1(C)C (centres undefined) | -0.3 | 5.1% (inactive)
CCN1C(=O)OC2(CCCCC2)C1(C)O (centres undefined) | -1.9 | 9% (inactive)
COc1ccc(N2CCN(C(=O)c3cn(C)c(=O)c4c3c3ccccc3n4C)CC2)cc1 | 6.2 | 20.1% (inactive)
C=CCC(NCc1ccco1)c1ccc(OC)cc1OC (centres undefined) | 22.1 | -5.4% (inactive)
Nc1cc(=O)[nH]c(SCC(=O)Nc2cccnc2Cl)n1 | 18.4 | -7.6% (inactive)
COCCC(=O)N1CCC(Oc2ccc(C(=O)N3CCCCCCC3)cc2)CC1 | 1.3 | 14% (inactive)
O=C1C(=O)c2ccc(-c3ccccc3)cc2-c2ccccc21 | -14.4 | 2.4% (inactive)
C/C(=N\NC(=O)c1cccs1)c1c(O)cc(C)oc1=O | 28.7 | 0.8% (inactive)
CC(=O)N/C(=C/c1ccc2c(c1)OCO2)C(=O)NCCCO | 1.2 | 2% (inactive)
Cc1cc(C)n(/N=C/c2ccccc2O)c(=O)c1 | 20.8 | 9.9% (inactive)
C[C@H]1CC[C@@H]2[C@@H](C)[C@H]3[C@H](C[C@H]4[C@@H]5CC=C6C[C@@H](O[C@@H]7O[C@H](CO)[C@H](O)[C@H](O[C@@H]8O[C@H](CO)[C@@H](O)[C@H](O)[C@H]8O)[C@H]7O[C@@H]7O[C@@H](C)[C@H](O)[C@@H](O)[C@H]7O)CC[C@]6(C)[C@H]5CC[C@]34C)N2C1 | 30.3 | -3% (inactive)
Cn1c(NC(=O)c2cccnc2)nc2ccccc21 | -33.6 | -0.5% (inactive)
CC(=O)Nc1cc2c(cc1C(=O)c1ccc(C)cc1)OCCO2 | 16 | -7.7% (inactive)
C[C@H](NC(=O)OCc1ccccc1)c1nnc([C@H](C)NC(=O)OCc2ccccc2)o1 | -3.8 | -5.1% (inactive)
Cc1ccc(-n2ncc(Br)c(Br)c2=O)cc1 | 9.4 | -1.3% (inactive)
O=C(CN1CCN(Cc2ccccc2Cl)C1=O)NCc1ccco1 | 17.1 | 31.5%
O=C(NC1=NCCS1)c1ccc(N2CCCC2=O)cc1 | -10.3 | -1.1% (inactive)
N#CCSCC(=O)Nc1ccc(F)cc1 | 4.7 | 4% (inactive)
COCCn1c(SCC(=O)Nc2cc(C)on2)nnc1C(C)C | -1.7 | 0.9% (inactive)
CCOC(=O)c1c(C)oc2c(F)c(F)c(F)c(F)c2c1=O | 32.1 | 19.8% (inactive)
COc1cccc(-c2noc(-c3ccc(Cl)nc3)n2)c1 | -8.2 | -3.6% (inactive)
Cc1ccc(OCC(=O)N2CCN(C(=O)c3ccco3)CC2)cc1 | 23.1 | 8.2% (inactive)
Cc1ccc(NC(=O)N2CCCC2C(=O)NCc2ccc3c(c2)OCO3)cc1 (centres undefined) | -10.4 | -0.3% (inactive)

Structure (SMILES) | inhibition (EGFP decrease, at 10 µM) [%] | inhibition (at 20 µM)
Cn1nc(-c2ccccn2)nc2c(=O)n(C)c(=O)nc1-2 | 61.5 | 45.6%
CCC(C(=O)NC1CCCCCC1)n1nc(C)n2c(cc3occc32)c1=O (centres undefined) | 2.6 | 5.5% (inactive)
O=C(Oc1ccccc1-c1nnco1)c1ccccc1 | 31 | -29.2% (inactive)
O=CN1CCC(=O)N(Cc2ccccc2)c2ccccc21 | 33.4 | 23.1% (inactive)
COC(=O)c1c(NC(=O)c2ccc(C)cc2)sc(Cc2ccccc2)c1C | 29.9 | -2.4% (inactive)
CC(C(=O)NC1=NCCS1)N1C(=O)C2CC=CCC2C1=O (centres undefined) | 20.2 | 27.7% (inactive)
CCC(Cc1ccccc1)NC(=O)Cn1cccc1C(=O)c1ccccc1 (centres undefined) | 9.1 | 15.9% (inactive)
CCCCN(CC)C(=O)c1cc2cc3ccc(OC)cc3nc2o1 | 23.8 | 25.6% (inactive)
Cc1nc2cc3ccccc3cc2c(=O)[nH]1 | 12.2 | 3.3% (inactive)
COc1ccc2[nH]cc(CC(=O)O)c2c1 | 39.2 | 23.6% (inactive)
COc1cccc2[nH]c(C(=O)NCCc3ccccc3)cc12 | 4.4 | 17.4% (inactive)
O=c1c2ccccc2[nH]c2ccccc12 | 13.8 | 18.3% (inactive)
Cc1ccsc1/C=N\NC(=O)CCc1c(C)n[nH]c1C | 4 | -13.2% (inactive)
O=S(=O)(NCc1cn2ccccc2n1)c1cccs1 | 8.4 | -3.1% (inactive)
Cc1nc2sc(C(c3cccc(F)c3)N3CC(C)OC(C)C3)c(O)n2n1 (centres undefined) | 6.2 | 30%
COc1ccccc1-c1cn[nH]c(=S)n1 | 24.4 | 8.7% (inactive)
CCOc1ccc(NC(=O)/C(=C\c2ccc(OC(C)=O)c(OC)c2)NC(C)=O)cc1 | 1.3 | -16.6% (inactive)
CC(=O)Nc1ccc2c(c1)nc(CCNC(=O)c1ccco1)n2C | 1.2 | 13% (inactive)
CC(C)C(=O)Nc1nnc(SCC(=O)NCc2cccs2)s1 | 11.1 | 12% (inactive)
CC(=O)c1ccc(NC(=O)NNS(=O)(=O)c2ccc([N+](=O)[O-])cc2)cc1 | 16.8 | 22.1% (inactive)
CCCCC(=O)NC(c1ccccc1Cl)c1ccc2cccnc2c1O (centres undefined) | 3.1 | -6.1% (inactive)
CCCC(C)C1(CC)C(=O)NC(=Nc2ccc(F)cc2)NC1=O (centres undefined) | 37.5 | 27.3% (inactive)
O=c1ccn(Cc2ccccc2Cl)cc1 | 33.3 | 14.1% (inactive)
COc1ccc(N2CCN(C(=O)CNS(=O)(=O)c3ccc(Br)s3)CC2)cc1 | 31 | 28.5% (inactive)
CC(NC(=O)c1c(F)cccc1Cl)c1ccc(-n2ccnc2)cc1 (centres undefined) | 35.7 | 24.4% (inactive)
